Source: PMC10176470, “Engaging a Non-catalytic Cysteine Residue Drives Potent and Selective Inhibition of Caspase-6” (Journal of the American Chemical Society, 2023)

How the values were obtained:
Assay type in all cases: cell-based
[1] = biological target: proteins of HEK293T cells transiently overexpressing caspase-6 (Homo sapiens, UniProt P0DMV8); details: protein HSPA1A (P0DMV8)
[2] = biological target: proteins of HEK293T cells transiently overexpressing caspase-6 (Homo sapiens, UniProt O00571); details: exp_ref Probe; protein DDX3X (O00571); analysis C6
[3] = biological target: T1, proteins of HEK293T cells transiently overexpressing caspase-6 (Homo sapiens, UniProt Q02978); details: protein SLC25A11 (Q02978), analysis C6
T1 sequence (Q02978 1-314): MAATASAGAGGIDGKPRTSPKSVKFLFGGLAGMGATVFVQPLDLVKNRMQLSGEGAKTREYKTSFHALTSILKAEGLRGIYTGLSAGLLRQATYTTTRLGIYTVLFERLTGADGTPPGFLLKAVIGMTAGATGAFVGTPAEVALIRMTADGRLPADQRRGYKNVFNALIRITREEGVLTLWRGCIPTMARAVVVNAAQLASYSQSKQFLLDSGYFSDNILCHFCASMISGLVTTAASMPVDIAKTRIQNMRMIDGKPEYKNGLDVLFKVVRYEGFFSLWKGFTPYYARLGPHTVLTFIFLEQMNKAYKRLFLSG

[4] = biological target: proteins of HEK293T cells transiently overexpressing caspase-6 (Homo sapiens, UniProt P0DPI2); details: exp_ref Probe; protein C21orf33 (P30042); analysis C6
[5] = biological target: proteins of HEK293T cells transiently overexpressing caspase-6 (Homo sapiens, UniProt P13645); details: Probe; protein KRT10 P13645
[6] = biological target: proteins of HEK293T cells transiently overexpressing caspase-6 (Homo sapiens, UniProt P52292); details: exp_ref Probe; protein KPNA2 (P52292); analysis C6
[7] = biological target: proteins of HEK293T cells transiently overexpressing caspase-6 (Homo sapiens, UniProt Q02543); details: exp_ref Probe; protein RPL18A (Q02543); analysis C6
[8] = biological target: proteins of HEK293T cells transiently overexpressing caspase-6 (Homo sapiens, UniProt P46060); details: exp_ref Probe; protein RANGAP1 (P46060); analysis C6
[9] = biological target: T2, proteins of HEK293T cells transiently overexpressing caspase-6 (Homo sapiens, UniProt O43175); details: protein PHGDH (O43175)
T2 sequence (O43175 1-533): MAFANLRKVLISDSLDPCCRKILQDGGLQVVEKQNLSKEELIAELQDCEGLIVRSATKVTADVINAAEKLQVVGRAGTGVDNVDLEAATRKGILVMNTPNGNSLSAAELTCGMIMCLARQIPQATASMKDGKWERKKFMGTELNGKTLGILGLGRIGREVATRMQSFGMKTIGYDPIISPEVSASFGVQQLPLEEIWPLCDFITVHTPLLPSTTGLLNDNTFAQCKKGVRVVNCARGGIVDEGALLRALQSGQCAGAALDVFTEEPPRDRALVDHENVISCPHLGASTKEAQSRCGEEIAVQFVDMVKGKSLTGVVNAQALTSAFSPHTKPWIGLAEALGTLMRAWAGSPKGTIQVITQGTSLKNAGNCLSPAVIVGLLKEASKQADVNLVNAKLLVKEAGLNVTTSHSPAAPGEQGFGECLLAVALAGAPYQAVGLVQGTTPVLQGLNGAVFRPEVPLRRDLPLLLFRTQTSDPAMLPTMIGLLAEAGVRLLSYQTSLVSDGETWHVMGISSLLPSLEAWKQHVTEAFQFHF

[10] = biological target: proteins of HEK293T cells transiently overexpressing caspase-6 (Homo sapiens, UniProt P05023); details: exp_ref Probe; protein ATP1A1 (P05023); analysis C6
[11] = biological target: T3, proteins of HEK293T cells transiently overexpressing caspase-6 (Homo sapiens, UniProt O43169); details: protein CYB5B (O43169)
T3 sequence (O43169 16-150): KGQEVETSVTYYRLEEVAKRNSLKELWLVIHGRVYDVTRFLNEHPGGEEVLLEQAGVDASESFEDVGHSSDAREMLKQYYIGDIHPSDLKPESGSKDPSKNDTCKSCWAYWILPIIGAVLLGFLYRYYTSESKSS

[12] = biological target: proteins of HEK293T cells transiently overexpressing caspase-6 (Homo sapiens, UniProt P49321); details: exp_ref Probe; protein NASP (P49321); analysis C6
[13] = biological target: proteins of HEK293T cells transiently overexpressing caspase-6 (Homo sapiens, UniProt P63244); details: exp_ref Probe; protein GNB2L1 (P63244); analysis C6
[14] = biological target: proteins of HEK293T cells transiently overexpressing caspase-6 (Homo sapiens, UniProt P27694); details: Probe; protein RPA1 P27694
[15] = biological target: proteins of HEK293T cells transiently overexpressing caspase-6 (Homo sapiens, UniProt P38919); details: exp_ref Probe; protein EIF4A3 (P38919); analysis C6
[16] = biological target: proteins of HEK293T cells transiently overexpressing caspase-6 (Homo sapiens, UniProt P31689); details: exp_ref Probe; protein DNAJA1 (P31689); analysis C6
proteins of HEK293T cells transiently overexpressing caspase-6 (Homo sapiens, UniProt P31689), sequence (P31689 whole entry): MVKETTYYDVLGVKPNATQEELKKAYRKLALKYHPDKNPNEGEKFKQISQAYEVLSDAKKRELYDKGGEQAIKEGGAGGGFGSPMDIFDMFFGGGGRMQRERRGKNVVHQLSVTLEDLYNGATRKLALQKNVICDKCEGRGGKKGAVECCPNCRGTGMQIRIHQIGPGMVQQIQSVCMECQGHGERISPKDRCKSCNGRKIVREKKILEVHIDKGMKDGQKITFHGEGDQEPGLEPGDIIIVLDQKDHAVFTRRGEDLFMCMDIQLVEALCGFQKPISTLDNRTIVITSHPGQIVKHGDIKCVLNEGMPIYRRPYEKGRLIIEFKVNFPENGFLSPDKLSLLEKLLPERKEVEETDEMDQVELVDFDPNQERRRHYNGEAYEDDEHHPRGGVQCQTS

proteins of HEK293T cells transiently overexpressing caspase-6 (Homo sapiens, UniProt P0DMV8), sequence (P0DMV8 whole entry): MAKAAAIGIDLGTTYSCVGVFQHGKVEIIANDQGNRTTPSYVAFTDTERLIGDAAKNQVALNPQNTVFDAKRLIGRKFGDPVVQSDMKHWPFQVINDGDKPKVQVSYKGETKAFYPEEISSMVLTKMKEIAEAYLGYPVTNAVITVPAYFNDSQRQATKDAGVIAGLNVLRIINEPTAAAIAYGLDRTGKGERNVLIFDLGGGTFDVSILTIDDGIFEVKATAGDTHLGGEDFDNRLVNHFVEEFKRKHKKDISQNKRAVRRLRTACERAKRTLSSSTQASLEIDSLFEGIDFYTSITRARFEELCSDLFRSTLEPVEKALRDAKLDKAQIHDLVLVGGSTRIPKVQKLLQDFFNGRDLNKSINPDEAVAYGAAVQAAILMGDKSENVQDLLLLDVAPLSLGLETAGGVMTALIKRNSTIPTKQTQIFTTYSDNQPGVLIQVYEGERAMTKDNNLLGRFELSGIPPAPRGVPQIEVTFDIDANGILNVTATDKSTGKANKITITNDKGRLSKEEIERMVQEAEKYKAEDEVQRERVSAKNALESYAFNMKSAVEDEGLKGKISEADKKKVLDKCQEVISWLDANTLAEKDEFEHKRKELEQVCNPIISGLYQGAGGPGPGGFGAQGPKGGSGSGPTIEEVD
proteins of HEK293T cells transiently overexpressing caspase-6 (Homo sapiens, UniProt P27694), sequence (P27694 whole entry): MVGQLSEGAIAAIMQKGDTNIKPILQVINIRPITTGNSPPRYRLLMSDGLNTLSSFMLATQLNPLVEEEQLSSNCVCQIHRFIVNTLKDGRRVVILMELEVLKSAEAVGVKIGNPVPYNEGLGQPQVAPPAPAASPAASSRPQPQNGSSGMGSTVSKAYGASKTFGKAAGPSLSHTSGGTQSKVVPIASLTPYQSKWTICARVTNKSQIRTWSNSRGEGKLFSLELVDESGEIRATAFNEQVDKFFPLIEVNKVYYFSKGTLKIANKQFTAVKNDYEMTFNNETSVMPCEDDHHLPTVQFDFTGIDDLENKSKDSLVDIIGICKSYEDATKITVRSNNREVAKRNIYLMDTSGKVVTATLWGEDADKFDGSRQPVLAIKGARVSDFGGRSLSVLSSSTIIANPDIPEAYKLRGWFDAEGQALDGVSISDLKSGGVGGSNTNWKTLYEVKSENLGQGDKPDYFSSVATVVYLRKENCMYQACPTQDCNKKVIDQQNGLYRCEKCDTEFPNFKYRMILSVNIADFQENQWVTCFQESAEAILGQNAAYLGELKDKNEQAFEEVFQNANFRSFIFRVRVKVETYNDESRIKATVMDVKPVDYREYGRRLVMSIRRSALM
proteins of HEK293T cells transiently overexpressing caspase-6 (Homo sapiens, UniProt P0DPI2), sequence (P0DPI2 42-268): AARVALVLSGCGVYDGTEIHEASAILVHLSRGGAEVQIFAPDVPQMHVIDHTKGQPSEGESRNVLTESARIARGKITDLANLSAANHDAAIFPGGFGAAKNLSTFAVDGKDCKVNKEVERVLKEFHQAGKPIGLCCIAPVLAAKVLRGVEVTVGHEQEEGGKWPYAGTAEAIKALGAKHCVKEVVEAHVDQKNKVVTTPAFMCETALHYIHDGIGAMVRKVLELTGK
proteins of HEK293T cells transiently overexpressing caspase-6 (Homo sapiens, UniProt P38919), sequence (P38919 whole entry): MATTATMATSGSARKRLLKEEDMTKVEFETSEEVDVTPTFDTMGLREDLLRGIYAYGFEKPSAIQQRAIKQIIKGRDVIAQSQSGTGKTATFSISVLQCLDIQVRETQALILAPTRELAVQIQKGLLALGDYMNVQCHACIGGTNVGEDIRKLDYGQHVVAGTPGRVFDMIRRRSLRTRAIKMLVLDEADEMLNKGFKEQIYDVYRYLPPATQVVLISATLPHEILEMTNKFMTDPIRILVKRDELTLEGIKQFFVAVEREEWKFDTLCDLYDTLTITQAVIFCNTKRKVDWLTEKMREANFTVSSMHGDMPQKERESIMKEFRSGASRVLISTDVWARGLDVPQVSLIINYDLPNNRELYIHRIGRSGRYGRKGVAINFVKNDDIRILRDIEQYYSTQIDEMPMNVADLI
proteins of HEK293T cells transiently overexpressing caspase-6 (Homo sapiens, UniProt P49321), sequence (P49321 whole entry): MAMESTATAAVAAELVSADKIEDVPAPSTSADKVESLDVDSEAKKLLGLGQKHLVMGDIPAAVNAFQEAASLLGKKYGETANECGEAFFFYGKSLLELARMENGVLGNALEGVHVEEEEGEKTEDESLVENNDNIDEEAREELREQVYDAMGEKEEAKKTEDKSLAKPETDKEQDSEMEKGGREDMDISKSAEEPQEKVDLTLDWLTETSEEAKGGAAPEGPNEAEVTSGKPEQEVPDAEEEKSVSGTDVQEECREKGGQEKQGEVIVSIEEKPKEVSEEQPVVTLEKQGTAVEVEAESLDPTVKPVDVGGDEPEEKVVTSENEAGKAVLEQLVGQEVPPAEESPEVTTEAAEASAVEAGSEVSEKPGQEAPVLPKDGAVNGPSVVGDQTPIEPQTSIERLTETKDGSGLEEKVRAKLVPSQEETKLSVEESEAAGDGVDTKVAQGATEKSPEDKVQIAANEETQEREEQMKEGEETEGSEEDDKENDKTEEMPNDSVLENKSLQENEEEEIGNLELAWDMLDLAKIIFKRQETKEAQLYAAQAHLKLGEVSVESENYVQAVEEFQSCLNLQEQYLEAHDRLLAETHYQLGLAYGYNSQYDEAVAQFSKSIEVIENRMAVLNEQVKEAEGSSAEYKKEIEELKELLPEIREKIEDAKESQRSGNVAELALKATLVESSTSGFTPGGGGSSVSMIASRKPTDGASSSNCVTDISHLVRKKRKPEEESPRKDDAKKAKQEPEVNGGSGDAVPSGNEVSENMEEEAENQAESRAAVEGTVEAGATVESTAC
proteins of HEK293T cells transiently overexpressing caspase-6 (Homo sapiens, UniProt O00571), sequence (O00571 whole entry): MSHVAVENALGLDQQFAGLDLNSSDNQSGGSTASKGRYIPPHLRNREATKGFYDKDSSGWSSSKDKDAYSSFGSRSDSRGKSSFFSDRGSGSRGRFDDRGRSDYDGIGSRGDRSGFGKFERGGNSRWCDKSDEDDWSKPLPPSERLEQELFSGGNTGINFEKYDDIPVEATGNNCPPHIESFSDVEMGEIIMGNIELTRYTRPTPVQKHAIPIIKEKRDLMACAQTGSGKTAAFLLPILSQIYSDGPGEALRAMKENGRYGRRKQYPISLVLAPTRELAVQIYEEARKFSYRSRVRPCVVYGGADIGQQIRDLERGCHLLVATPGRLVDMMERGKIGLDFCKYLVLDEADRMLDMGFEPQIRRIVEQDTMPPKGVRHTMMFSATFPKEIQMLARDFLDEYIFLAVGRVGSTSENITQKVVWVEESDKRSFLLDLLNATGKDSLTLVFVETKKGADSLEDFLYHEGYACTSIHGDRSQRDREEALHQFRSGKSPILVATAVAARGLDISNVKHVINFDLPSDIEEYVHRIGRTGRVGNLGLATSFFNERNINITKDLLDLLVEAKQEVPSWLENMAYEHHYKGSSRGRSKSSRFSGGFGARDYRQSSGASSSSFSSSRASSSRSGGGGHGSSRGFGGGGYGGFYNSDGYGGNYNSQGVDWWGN
proteins of HEK293T cells transiently overexpressing caspase-6 (Homo sapiens, UniProt P46060), sequence (P46060 whole entry): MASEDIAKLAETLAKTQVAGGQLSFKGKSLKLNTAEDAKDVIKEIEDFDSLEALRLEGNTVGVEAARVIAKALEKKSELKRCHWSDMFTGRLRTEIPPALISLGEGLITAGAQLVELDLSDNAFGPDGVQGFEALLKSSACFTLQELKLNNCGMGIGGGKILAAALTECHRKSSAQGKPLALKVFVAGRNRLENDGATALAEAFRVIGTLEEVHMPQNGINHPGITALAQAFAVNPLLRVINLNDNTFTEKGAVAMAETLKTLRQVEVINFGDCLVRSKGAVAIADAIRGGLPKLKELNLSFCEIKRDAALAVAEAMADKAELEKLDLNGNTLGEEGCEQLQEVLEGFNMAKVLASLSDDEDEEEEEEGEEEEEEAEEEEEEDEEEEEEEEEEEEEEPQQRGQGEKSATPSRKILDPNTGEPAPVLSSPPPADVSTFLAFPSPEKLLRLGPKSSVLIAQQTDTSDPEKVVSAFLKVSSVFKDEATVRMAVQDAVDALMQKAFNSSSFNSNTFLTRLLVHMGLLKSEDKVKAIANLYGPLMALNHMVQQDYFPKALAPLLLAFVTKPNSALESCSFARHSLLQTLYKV
proteins of HEK293T cells transiently overexpressing caspase-6 (Homo sapiens, UniProt P13645), sequence (P13645 whole entry): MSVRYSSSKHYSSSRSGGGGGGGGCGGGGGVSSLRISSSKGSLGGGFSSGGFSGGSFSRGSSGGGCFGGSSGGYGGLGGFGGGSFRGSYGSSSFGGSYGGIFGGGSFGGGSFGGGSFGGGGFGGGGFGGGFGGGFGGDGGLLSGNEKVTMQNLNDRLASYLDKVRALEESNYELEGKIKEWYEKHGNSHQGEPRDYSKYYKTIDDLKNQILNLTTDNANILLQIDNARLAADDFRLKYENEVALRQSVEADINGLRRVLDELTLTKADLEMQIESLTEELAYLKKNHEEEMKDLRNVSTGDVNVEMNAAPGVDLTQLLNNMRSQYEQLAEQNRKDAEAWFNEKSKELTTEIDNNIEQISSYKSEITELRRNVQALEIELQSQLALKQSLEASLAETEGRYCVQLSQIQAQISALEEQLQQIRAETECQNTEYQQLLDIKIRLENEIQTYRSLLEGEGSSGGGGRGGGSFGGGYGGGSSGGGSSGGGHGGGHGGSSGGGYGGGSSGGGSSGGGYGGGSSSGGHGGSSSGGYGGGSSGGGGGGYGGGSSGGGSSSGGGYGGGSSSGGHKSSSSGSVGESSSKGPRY

In the case of `C#CCOc1ccc([C@@H]2C[C@@H](C(=O)Nc3ccc(OC(F)(F)F)cc3)CN(S(=O)(=O)C=C)C2)cc1` (relative stereo) [13-t], the enrich.exp.med ([1]; exp_ref Probe, analysis C6) is reported as 0.4797, the enrich.exp.med.lin [1] is reported as 1.394 and the enrich.exp.med.log2 [1] is reported as 0.4797. For the same molecule, the enrich.exp.med [2] was 0.1246, the enrich.exp.med.lin ([3]; Expt Probe) was 7.305 and the enrich.exp.med.log2 ([3]; Expt Probe) was 2.869. The enrich.exp.med ([3]; exp_ref Probe) was 2.869, the enrich.exp.med [4] was -0.3681 and the enrich.exp.med [5] was -7.844. The enrich.exp.med [6] was 0.5159, the enrich.exp.med [7] was -0.1551 and the enrich.exp.med [8] was 0.1212. It also gave an enrich.exp.med ([9]; exp_ref Probe, analysis C6) of 1.1798, an enrich.exp.med.lin [9] of 2.265 and an enrich.exp.med.log2 [9] of 1.1798. For the same molecule, the enrich.exp.med [10] was -0.3639, the enrich.exp.med.lin [11] was 2.907 and the enrich.exp.med.log2 [11] was 1.54. The enrich.exp.med ([11]; exp_ref Probe, analysis C6) was 1.54, the enrich.exp.med [12] was 0.1581 and the enrich.exp.med [13] was 0.2005. For the same molecule, the enrich.exp.med [14] was -1.323, the enrich.exp.med [15] was 0.7561 and the enrich.exp.med [16] was 0.404.
